Series [1] deals with Respiratory Syncytial Virus. Description: In vitro screening for activity against Respiratory Syncytial Virus (MTT assay, protection against cytopathology). It is filed as cell-based. The note with it: for SI (selectivity index, CC50 divided by IC50): RSV, HeLa cells; for IC50: human respiratory syncytial virus, 168 h, RSV-infected HeLa cells, seven days after infection, MTT, read-out: IC50 (antiviral activity). The source says:
(§1) The percent protection against cytopathology caused by viruses (antiviral activity or IC50) achieved by tested compounds and their cytotoxicity (CC50) were both calculated from dose-response curves. The selectivity of the antiviral effect is represented by the selectivity index (SI), calculated by dividing the CC50 (cytotoxic dose for 50% of the cells) by the IC50 (antiviral activity for 50% of the cells).
(§2) Automated tetrazolium-based […] assays were used for determination of IC50 and CC50 of test compounds. Flat-bottom, 96-well plastic microtiter trays were filled with 180 μl of Eagle's Basal Medium, supplemented with 5% FCS (0% for FLU) and 20 mM Hepes buffer. Subsequently, stock solutions (7.8× final test concentration) of compounds were added in 45 μl volumes to a series of triplicate wells so as to allow simultaneous evaluation of their effects on virus- and mock-infected cells. Five five-fold dilutions were made directly in the microtiter trays using a robot system. Untreated virus controls, and HeLa cell controls were included in each test. Approximately 100 TCID50 of Respiratory Syncytial Virus was added to two of the three rows in a volume of 50 μl. The same volume of medium was added to the third row to measure the cytotoxicity of the compounds at the same concentrations as those used to measure the antiviral activity. After two hours of incubation, a suspension (4×10^5 cells/ml) of HeLa cells was added to all wells in a volume of 50 μl. The cultures were incubated at 37° C. in a 5% CO2 atmosphere. Seven days after infection the cytotoxicity and the antiviral activity was examined spectrophotometrically. To each well of the microtiter tray, 25 μl of a solution of MTT (3-(4,5-dimethylthiazol-2-yl)-2,5-diphenyltetrazolium bromide) was added. The trays were further incubated at 37° C. for 2 hours, after which the medium was removed from each cup. Solubilization of the formazan crystals was achieved by adding 100 μl 2-propanol. Complete dissolution of the formazan crystals were obtained after the trays have been placed on a plate shaker for 10 min. Finally, the absorbances were read in an eight-channel computer-controlled photometer (Multiskan MCC, Flow Laboratories) at two wavelengths (540 and 690 nm). The absorbance measured at 690 nm was automatically subtracted from the absorbance at 540 nm, so as to eliminate the effects of non-specific absorption.
For orientation: Tetrazolium dyes change colour on reduction, which living cells bring about.

Another series deals with HeLa cells. It is filed as cell-based. The note with it: human, 7 days.
From the text: as §1, §2

Series [2] has as its target farnesyl protein transferase (FPTase) (Homo sapiens, UniProt P49354+P49356). Description: In vitro assay for inhibition of farnesyl protein transferase. It is filed as biochemical. The note with it: test dose of 10^−7 M. How it is done:
An in vitro assay for inhibition of farnesyl transferase was performed essentially as described in WO 98/40383, pages 33-34.

Some results are limits rather than exact numbers.

What is called IC50 is the concentration that inhibits the measured activity by half. Turning to `Cc1ccc(CCN(Cc2ccc3ccccc3n2)Cc2nncn2Cc2ccc(C#N)cc2)cc1` [compound 46], in series [1], the “SI (selectivity index, CC50 divided by IC50)” value is reported as 758 and the IC50 worked out at 88.1 nM. For the same compound, the “CC50 (cytotoxic dose for 50% of the cells)” value in the series on HeLa cells was 7060 nM.
The matching figures for `COC(=O)c1ccc(Cn2cnnc2CN(CCc2ccc(Br)cc2)Cc2ccc3ccccc3n2)cc1` [compound 90]: 1988, 25.9 nM and 7590 nM.
On to `Brc1ccc(CCN(Cc2ccc3ccccc3n2)Cc2nncn2Cc2ccc(Br)cc2)cc1` [compound 92], for which, in series [1], the “SI (selectivity index, CC50 divided by IC50)” value stood at 147 and the IC50 worked out at 150 nM. For the same compound, the “CC50 (cytotoxic dose for 50% of the cells)” value with HeLa cells came out at 6820 nM.
The matching figures for `Fc1ccc(Cn2cnnc2CN(CCc2ccc(Br)cc2)Cc2ccc3ccccc3n2)cc1` [compound 97]: 322, 80 nM and 7100 nM.
Take `Brc1ccc(CCN(Cc2ccc3ccccc3n2)Cc2nncn2Cc2ccccc2)cc1` [compound 101]: in series [1], the “SI (selectivity index, CC50 divided by IC50)” value was found to be 196 and the IC50 was 128 nM. In addition, the “CC50 (cytotoxic dose for 50% of the cells)” value in the series with HeLa cells worked out at 6890 nM.
As to `N#Cc1cccc(Cn2cnnc2CN(CCc2ccc(Br)cc2)Cc2ccc3ccccc3n2)c1` [compound 102], in series [1], the “SI (selectivity index, CC50 divided by IC50)” value came to 793 and the IC50 stood at 82.4 nM. In the series on HeLa cells, the “CC50 (cytotoxic dose for 50% of the cells)” value came to 7080 nM.
Turning to `N#Cc1ccc(Cn2cnnc2CN(CCc2ccc(Cl)cc2Cl)Cc2ccc3ccccc3n2)cc1` [compound 114], in series [1], the “SI (selectivity index, CC50 divided by IC50)” value is given as 337 and the IC50 came to 118 nM. Besides, the “CC50 (cytotoxic dose for 50% of the cells)” value in the series on HeLa cells came out at 6930 nM.
As for `N#Cc1ccc(Cn2cnnc2CN(CCc2ccc(Br)cc2)Cc2ccc3cccc(O)c3n2)cc1` [compound 155], in series [1], the “SI (selectivity index, CC50 divided by IC50)” value is given as 99 and the IC50 was 160 nM. Further, the “CC50 (cytotoxic dose for 50% of the cells)” value with HeLa cells is 6800 nM.
With `Clc1ccc(Cn2cnnc2CN(CCc2ccc(Br)cc2)Cc2ccc3ccccc3n2)cc1` [compound 157], in series [1], the “SI (selectivity index, CC50 divided by IC50)” value turned out to be 272 and the IC50 stood at 93.1 nM. The “CC50 (cytotoxic dose for 50% of the cells)” value in the series with HeLa cells turned out to be 7030 nM.
The term inhibition denotes the drop in the measured response relative to a control, in per cent. Read a low inhibition as little suppression. Compound `N#Cc1ccc(Cn2cnnc2CN(Cc2ccc(Cl)c(Cl)c2)C(=O)c2ccc3ccccc3n2)cc1` [compound 286] came in with an inhibition at 0.1 µM in series [2] not below 10%.
`Cc1ccc(C(=O)N(Cc2ccc(F)cc2F)Cc2nncn2Cc2ccc(C#N)cc2)cc1-c1ccsc1` [compound 288] showed an inhibition at 0.1 µM in series [2] not below 10%.
Still for that read-out and setting: the value for `N#Cc1ccc(Cn2cnnc2CN(Cc2ccc(F)cc2F)C(=O)C2=Cc3ccccc3OC2)cc1` [compound 289] was not below 10%.
Same read-out and setting: the value for `COc1cc(Cn2cnnc2CN(Cc2ccc(F)cc2F)C(=O)c2ccc3ccccc3n2)ccc1[N+](=O)[O-]` [compound 290] was not below 10%; that for `N#Cc1ccc(Cn2cnnc2CN(Cc2ccc(F)cc2F)C(=O)c2cc(Br)cc3c2OCC3)cc1` [compound 291] was not below 10%; that for `N#Cc1ccc(Cn2cnnc2CN(Cc2ccc(F)cc2F)C(=O)c2ccc(-c3cccc(C(F)(F)F)c3)o2)cc1` [compound 292] was not below 10%.
Still for that read-out and setting: the result for `N#Cc1ccc(Cn2cnnc2CN(Cc2ccc(F)cc2F)C(=O)c2ccc(OC(F)(F)F)c(Cl)c2)cc1` [compound 293] reads not below 10%; that for `N#Cc1ccc(Cn2cnnc2CN(Cc2ccccc2Cl)C(=O)c2ccc3ccccc3n2)cc1` [compound 294], not below 10%.
On to `N#Cc1ccc(Cn2cnnc2CN(Cc2ccc(F)cc2F)C(=O)c2ccc3ccccc3n2)nc1` [compound 295], for which the inhibition at 0.1 µM in series [2] is not below 10%.
On the same count and under the same terms, the value for `N#Cc1ccc(Cn2cnnc2CN(Cc2ccc(F)cc2F)C(=O)c2ccc(-c3cc(Cl)cc(Cl)c3)o2)cc1` [compound 296] was not below 10%; that for `N#Cc1ccc(Cn2cnnc2CN(Cc2ccc(F)cc2)C(=O)c2ccc3ccccc3n2)cc1` [compound 297] was not below 10%.
In the case of `COc1cc(C(=O)N(Cc2ccc(F)cc2F)Cc2nncn2Cc2ccc(C#N)cc2)nc2ccccc12` [compound 298], the inhibition at 0.1 µM in series [2] is not below 10%.
Same read-out and setting: the result for `N#Cc1ccc(Cn2cnnc2CN(Cc2ccc(F)cc2F)C(=O)c2cc3ccccc3o2)cc1` [compound 299] reads not below 10%; that for `N#Cc1ccc(Cn2cnnc2CN(Cc2ccc(F)cc2F)C(=O)c2ccc3ccccc3n2)cc1` [compound 300], not below 10%.
The same measure, in the same setting: the result for `N#Cc1ccc(Cn2cnnc2CN(Cc2ccc(F)cc2F)C(=O)c2nc3ccccc3nc2O)cc1` [compound 301] reads not below 10%.
In the case of `N#Cc1ccc(Cn2cnnc2CN(Cc2ccc(C(F)(F)F)cc2)C(=O)c2ccc3ccccc3n2)cc1` [compound 302], in series [2], the inhibition at 0.1 µM is not below 10%.
Still for that read-out and setting: the value for `N#Cc1ccc(Cn2cnnc2CN(Cc2c(F)cccc2F)C(=O)c2ccc3ccccc3n2)cc1` [compound 303] was not below 10%; that for `N#Cc1ccc(Cn2cnnc2CN(Cc2ccc(Br)cc2)C(=O)c2ccc3ccccc3n2)cc1` [compound 304] was not below 10%; that for `N#Cc1ccc(Cn2cnnc2CN(Cc2cc(F)cc(F)c2)C(=O)c2ccc3ccccc3n2)cc1` [compound 305] was not below 10%.
Same read-out and setting: the result for `N#Cc1ccc(Cn2cnnc2CN(Cc2ccccc2F)C(=O)c2ccc3ccccc3n2)cc1` [compound 306] reads not below 10%; that for `N#Cc1ccc(Cn2cnnc2CN(Cc2cccc(F)c2F)C(=O)c2ccc3ccccc3n2)cc1` [compound 307], not below 10%; that for `Cc1ccc(C(=O)N(Cc2ccc(F)cc2F)Cc2nncn2Cc2ccc(C#N)cc2)cc1-c1cc(Cl)cc(Cl)c1` [compound 308], not below 10%.
Regarding `Cc1ccc(C(=O)N(Cc2ccc(F)cc2F)Cc2nncn2Cc2ccc(C#N)cc2)cc1Br` [compound 309], in series [2], the inhibition at 0.1 µM is not below 10%.
For the compound `Cc1nnc(CN(Cc2ccc(F)cc2F)C(=O)c2ccc3ccccc3n2)n1Cc1ccc(C#N)cc1` [compound 311], the inhibition at 0.1 µM in series [2] was not below 10%.
The same measure, in the same setting: the result for `Cc1nnc(CN(Cc2ccc(F)cc2F)C(=O)c2ccc3ccccc3n2)n1-c1ccc(C#N)cc1` [compound 313] reads not below 10%; that for `Cc1ccc(Br)cc1C(=O)N(Cc1ccc(F)cc1F)Cc1nncn1Cc1ccc(C#N)cc1` [compound 314], not below 10%.
Same read-out and setting: the value for `N#Cc1ccc(Cn2cnnc2CN(Cc2ccc(F)cc2F)C(=O)c2ccc3ccccc3c2)cc1` [compound 315] was not below 10%.
